Test results as given in ChEMBL document CHEMBL5523748, “Targeting Myeloperoxidase Ameliorates Gouty Arthritis: A Virtual Screening Success Story” (J Med Chem, 2024).
The source made the active and inactive calls. No cut-off for these calls is given here.

Legend:
[1] = target: T1, Myeloperoxidase (Homo sapiens) (UniProt P05164); assay: Inhibition of human leukocyte MPO chlorinating activity using hydrogen peroxide as substrate at 20 uM preincubated for 15 mins followed by substrate addition and measured after 8 mins relative to control; conditions: time 23.0 min
T1 sequence (whole entry): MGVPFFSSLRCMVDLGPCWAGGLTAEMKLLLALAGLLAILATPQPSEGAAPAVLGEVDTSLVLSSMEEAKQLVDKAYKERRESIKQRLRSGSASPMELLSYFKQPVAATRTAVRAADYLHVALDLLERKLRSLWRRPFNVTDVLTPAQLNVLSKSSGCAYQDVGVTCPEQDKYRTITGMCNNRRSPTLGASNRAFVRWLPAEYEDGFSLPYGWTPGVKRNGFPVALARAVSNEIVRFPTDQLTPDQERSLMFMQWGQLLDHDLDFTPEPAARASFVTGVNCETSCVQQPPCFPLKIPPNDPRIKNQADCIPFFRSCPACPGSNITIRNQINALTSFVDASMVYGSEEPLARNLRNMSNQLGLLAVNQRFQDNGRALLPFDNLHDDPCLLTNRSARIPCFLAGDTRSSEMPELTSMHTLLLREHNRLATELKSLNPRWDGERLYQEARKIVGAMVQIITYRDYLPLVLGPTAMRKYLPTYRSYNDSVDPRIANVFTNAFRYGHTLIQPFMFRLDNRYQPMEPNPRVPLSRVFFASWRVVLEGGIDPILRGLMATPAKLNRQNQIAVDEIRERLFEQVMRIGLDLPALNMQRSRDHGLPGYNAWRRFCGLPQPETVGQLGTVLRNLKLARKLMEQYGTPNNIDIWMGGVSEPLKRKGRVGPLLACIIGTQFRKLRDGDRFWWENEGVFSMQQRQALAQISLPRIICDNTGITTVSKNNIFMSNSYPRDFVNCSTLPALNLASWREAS

[2] = test system: dHL-60; assay: Inhibition of HOCl production in human dHL-60 cells at 20 uM incubated for 1 hrs in presence of PMA; assay type: functional, cell-based
[3] = test system: Neutrophil; assay: Inhibition of MSU-induced NETosis in human neutrophil assessed as reduction in release of large DNA scaffolds at 20 uM incubated for 90 mins by sytox green staining based fluorescence microscopic analysis; assay type: functional, cell-based
[4] = test system: TERT-RPE1; assay: Cytotoxicity against human hTERT-RPE1 cells assessed as reduction in cell viability at 2 to 50 uM measured after 72 hrs by XTT assay; assay type: toxicity, cell-based; conditions: tert-rpe1, 72 h, dose 2-50 µM
[5] = Reactivity of the compound in phosphate buffer at pH 7.4 assessed as compound oxidation by measuring decrease in fluorescence spectra in presence of H2O2 and chloride by fluorescence microplate reader; assay type: physicochemical
[6] = Reactivity of the compound in phosphate buffer at pH 7.4 assessed as compound oxidation by measuring decrease in fluorescence spectra in presence of MPO by fluorescence microplate reader; assay type: physicochemical
[7] = test system: Mus musculus; assay: Downregulation of IL-6 level in MSU-induced gouty arthritic male C57BL/6 mouse model at 30 mg/kg, ip preadministered with compound for 30 mins followed by MSU addition and measured after 6 hrs by ELISA; assay type: functional, organism-based; conditions: time 6.5 hrs
[8] = Antioxidant activity assessed as taurine chloramine scavenging activity incubated for 15 mins; assay type: functional
[9] = target: T1, Myeloperoxidase (Homo sapiens); assay: Reversible inhibition of human leukocyte MPO using hydrogen peroxide as substrate assessed as restoration of MPO peroxidase activity at 20 uM incubated for 30 mins and measured after dilution using acetate buffer in presence of TMB
[10] = target: Poly [ADP-ribose] polymerase 1 (Homo sapiens) (UniProt P09874); assay: Inhibition of PARP1-induced ADP-ribosylation in human hTERT-RPE1 cells at 1 to 50 uM preincubated with compound for 1 hrs followed by H2O2 addition and measured after 10 mins; assay type: cell-based; conditions: dose 1-50 µM, time 70.0 min
Poly [ADP-ribose] polymerase 1 (Homo sapiens), sequence (P09874 whole entry): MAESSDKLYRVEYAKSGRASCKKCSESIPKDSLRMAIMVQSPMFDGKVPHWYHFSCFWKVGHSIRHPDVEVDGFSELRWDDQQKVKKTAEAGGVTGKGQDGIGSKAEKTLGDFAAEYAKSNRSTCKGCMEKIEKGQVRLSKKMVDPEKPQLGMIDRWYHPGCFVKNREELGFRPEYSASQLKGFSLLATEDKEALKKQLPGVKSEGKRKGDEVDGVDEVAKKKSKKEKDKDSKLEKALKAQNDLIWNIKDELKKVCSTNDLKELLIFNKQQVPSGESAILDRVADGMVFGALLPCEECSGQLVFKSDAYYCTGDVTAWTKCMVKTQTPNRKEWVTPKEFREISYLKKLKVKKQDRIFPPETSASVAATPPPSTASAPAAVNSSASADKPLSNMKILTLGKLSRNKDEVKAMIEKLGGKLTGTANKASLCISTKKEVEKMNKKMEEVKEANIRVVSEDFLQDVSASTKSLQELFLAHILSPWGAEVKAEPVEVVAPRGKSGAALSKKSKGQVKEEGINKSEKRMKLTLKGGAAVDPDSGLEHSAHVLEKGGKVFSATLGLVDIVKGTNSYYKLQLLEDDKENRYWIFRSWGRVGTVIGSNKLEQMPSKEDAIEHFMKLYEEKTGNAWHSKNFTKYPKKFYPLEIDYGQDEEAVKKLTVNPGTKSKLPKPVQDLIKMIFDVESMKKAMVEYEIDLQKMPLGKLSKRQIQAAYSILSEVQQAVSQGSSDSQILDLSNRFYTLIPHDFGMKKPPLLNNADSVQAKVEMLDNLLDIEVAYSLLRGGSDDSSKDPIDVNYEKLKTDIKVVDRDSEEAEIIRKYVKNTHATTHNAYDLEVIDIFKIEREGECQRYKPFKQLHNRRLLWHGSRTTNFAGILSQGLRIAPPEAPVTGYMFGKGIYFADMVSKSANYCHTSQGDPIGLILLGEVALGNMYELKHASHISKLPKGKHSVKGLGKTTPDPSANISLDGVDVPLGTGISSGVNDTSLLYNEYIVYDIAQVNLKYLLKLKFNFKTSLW

[11] = test system: Neutrophil; assay: Inhibition of MSU-induced NETosis in human neutrophil assessed as reduction in nuclear expansion at 20 uM incubated for 90 mins by sytox green staining based fluorescence microscopic analysis; assay type: functional, cell-based
[12] = Reactivity of the compound in phosphate buffer at pH 7.4 assessed as compound oxidation by measuring decrease in fluorescence spectra in presence of MPO, H2O2 and tyrosine by fluorescence microplate reader; assay type: physicochemical
[13] = test system: Mus musculus; assay: Anti-inflammatory activity against MSU-induced gouty arthritis in male C57BL/6 mouse model assessed as prevention of paw edema at 3 to 30 mg/kg, ip preadministered with compound for 30 mins followed by MSU administration and measured for 6 hrs by plethysmometer; assay type: functional, organism-based; conditions: dose 3-30 mg/kg, time 6.5 hrs
[14] = Reactivity of the compound in phosphate buffer at pH 7.4 assessed as compound oxidation by measuring decrease in fluorescence spectra in presence of H2O2 by fluorescence microplate reader; assay type: physicochemical
[15] = test system: Neutrophil; assay: Inhibition of HOCl production in human neutrophil at 20 uM incubated for 1 hrs in presence of PMA; assay type: functional, cell-based
[16] = Reactivity of the compound in phosphate buffer at pH 7.4 assessed as compound oxidation by measuring decrease in fluorescence spectra in presence of MPO and chloride by fluorescence microplate reader; assay type: physicochemical
[17] = test system: Mus musculus; assay: Downregulation of IL-1beta level in MSU-induced gouty arthritic male C57BL/6 mouse model at 30 mg/kg, ip preadministered with compound for 30 mins followed by MSU addition and measured after 6 hrs by ELISA; assay type: functional, organism-based; conditions: time 6.5 hrs
[18] = test system: Mus musculus; assay: Anti-inflammatory activity against MSU-induced gouty arthritis in male C57BL/6 mouse model assessed as prevention of paw edema at 30 mg/kg, ip preadministered with compound for 30 mins followed by MSU administration and measured upto 4 hrs by plethysmometer; assay type: functional, organism-based
[19] = test system: Mus musculus; assay: Reduction in total peroxidase activity in MSU-induced gouty arthritic male C57BL/6 mouse model at 30 mg/kg, ip preadministered with compound for 30 mins followed by MSU addition and measured after 6 hrs; assay type: functional, organism-based; conditions: time 6.5 hrs
[20] = target: T1, Myeloperoxidase (Homo sapiens); assay: Inhibition of human leukocyte MPO peroxidase activity using hydrogen peroxide as substrate by fluorescence based analysis
[21] = test system: Mus musculus; assay: Anti-inflammatory activity against MSU-induced gouty arthritis in male C57BL/6 mouse model assessed as inhibition of paw edema at 34 mg/kg, po preadministered with compound for 1 hrs followed by MSU administration and measured for 6 hrs by plethysmometer; assay type: functional, organism-based; conditions: time 7.0 hrs
[22] = test system: Mus musculus; assay: Anti-inflammatory activity against MSU-induced gouty arthritis in male C57BL/6 mouse model assessed as prevention of paw edema at 3 to 30 mg/kg, ip preadministered with compound for 30 mins followed by MSU administration and measured upto 4 hrs by plethysmometer; assay type: functional, organism-based; conditions: dose 3-30 mg/kg
[23] = test system: TERT-RPE1; assay: Cytotoxicity against human hTERT-RPE1 cells assessed as reduction in cell viability at 50 uM measured after 72 hrs by XTT assay; assay type: toxicity, cell-based; conditions: tert-rpe1, 72 h
[24] = test system: Mus musculus; assay: Anti-inflammatory activity against MSU-induced gouty arthritis in male C57BL/6 mouse model assessed as prevention of paw edema at 3 to 30 mg/kg, ip preadministered with compound for 30 mins followed by MSU administration and measured for 1 to 4 hrs by plethysmometer; assay type: functional, organism-based; conditions: dose 3-30 mg/kg, time lower 1.5 hrs, time upper […]
[25] = test system: Mus musculus; assay: Anti-inflammatory activity against MSU-induced gouty arthritis in male C57BL/6 mouse model assessed as prevention of paw edema at 0.3 mg/kg, ip preadministered with compound for 30 mins followed by MSU administration and measured for 4 hrs by plethysmometer; assay type: functional, organism-based
[26] = Reactivity with Hypochlorous acid (HOCl) in phosphate buffer at pH 7.4 assessed as fluorescence decay at 20 uM measured within 1 sec by stopped-flow spectrophotometric analysis; assay type: physicochemical; conditions: pH 7.4, 1 s

## CCOC(=O)C(Cc1ccc(O)cc1)NC1=CC(=O)C(=O)c2ccccc21 (centres undefined)
[1]
  inhibition: inactive

## Nc1cc2c3c(cccc3c1)C(=O)N(N)C2=O
[2]
  inhibition: Active
[3]
  inhibition: Active
[4]
  Activity: Non-Toxic
[5]
  Drug metabolism: Metabolite_Notdetected
[6]
  Drug metabolism: Metabolite_Notdetected
[7]
  Activity: inactive
[8]
  Activity: inactive
[9]
  inhibition: Active
[10]
  inhibition: inactive
[11]
  inhibition: Active
[12]
  Drug metabolism: Metabolite_Notdetected
[13]
  Activity: Active
[14]
  Drug metabolism: Metabolite_Notdetected
[15]
  inhibition: Active
[16]
  Drug metabolism: Metabolite_Notdetected

## Cc1cccc(Nc2ccccc2C(=O)O)c1C
[17]
  Activity: inactive
[7]
  Activity: inactive
[18]
  Activity: Active
[19]
  Activity: inactive

## COc1cc(/C=N/NC(=O)c2ccoc2C)ccc1OCCN1CCCCC1
[1]
  inhibition: inactive

## CCCc1cc(=O)[nH]c(=S)[nH]1
[2]
  inhibition: Active
[3]
  inhibition: Active
[11]
  inhibition: Active
[15]
  inhibition: Active

## N#CC1=C(N)Oc2c(c(=O)sc3ccccc23)C1c1ccc(F)cc1 (centres undefined)
[1]
  inhibition: inactive

## CCCOc1ccc(C2C(C#N)=C(N)SC(N)=C2C#N)cc1OC
[8]
  Activity: Active

## CCCNc1ncnc2cc(-c3ccc(OC)cc3)sc12
[20]
  inhibition: inactive
[1]
  inhibition: inactive

## O=c1c2cnc3cc(C(F)(F)F)ccc3c2sc2nncn12
[20]
  inhibition: inactive
[1]
  inhibition: inactive

## COc1ccc(C(=O)Nc2ccc(-c3nnc(S)o3)cc2)cc1
[2]
  inhibition: inactive
[20]
  inhibition: inactive
[8]
  Activity: Active
[15]
  inhibition: inactive

## CN(C)CCc1c(C#N)c(=O)ncn1Cc1ccccc1
[20]
  inhibition: inactive
[1]
  inhibition: inactive

## CCc1c(O)[nH]c2nc3ccccc3n2c1=O
[17]
  Activity: inactive
[7]
  Activity: inactive
[21]
  Activity: inactive
[22]
  Activity: Active
[19]
  Activity: inactive

## CN1CCc2nc3sc(C(=O)Nc4cccc(C#N)c4)c(N)c3cc2C1
[23]
  Activity: Toxic
[2]
  inhibition: Active
[3]
  inhibition: Active
[24]
  Activity: Active
[17]
  Activity: inactive
[5]
  Drug metabolism: Metabolite_Detected
[6]
  Drug metabolism: Metabolite_Notdetected
[20]
  inhibition: inactive
[7]
  Activity: inactive
[8]
  Activity: inactive
[25]
  Activity: Active
[26]
  Drug metabolism: Metabolite_Detected
[11]
  inhibition: Active
[14]
  Drug metabolism: Metabolite_Notdetected
[15]
  inhibition: Active
[16]
  Drug metabolism: Metabolite_Detected
[19]
  Activity: inactive
